According to patent publication US5705523A, “Pyridine- and imidazole-derived agents for cardiovascular diseases” (Pfizer Inc., priority 1991, dated 1998):

Assays:
[1] = tested on: PGI2 synthetase; conditions: pre-incubation with pig aorta microsomes; result in words; cited from earlier work
[2] = molecular target: T1, thromboxane A2 receptor (Rattus norvegicus, UniProt P34978); assay: Thromboxane A2 receptor antagonism (U-46619 contraction of rat aortic strips); type: cell-based; conditions: agonist U-46619, in vitro, read-out: T×A2 antagonist activity: pA2 (converted)
T1 construct: Spirally cut rat aortic strips; from tissue; host or cells: rat aorta (spirally cut strips)
T1 sequence (P34978 1-341): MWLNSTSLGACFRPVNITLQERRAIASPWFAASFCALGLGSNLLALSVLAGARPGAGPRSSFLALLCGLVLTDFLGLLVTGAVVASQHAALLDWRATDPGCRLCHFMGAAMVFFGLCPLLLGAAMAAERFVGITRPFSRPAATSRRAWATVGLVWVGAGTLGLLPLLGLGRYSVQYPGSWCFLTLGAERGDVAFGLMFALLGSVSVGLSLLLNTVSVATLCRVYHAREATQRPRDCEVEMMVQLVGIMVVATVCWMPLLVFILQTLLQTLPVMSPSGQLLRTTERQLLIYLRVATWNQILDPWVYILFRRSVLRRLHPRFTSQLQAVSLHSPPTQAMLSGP
Protocol: Spirally cut rat aortic strips, mounted for isometric tension recording in 20 ml organ baths, are bathed in Krebs-bicarbonate solution at 37° C. Following an incubation period of 2 hours under 1 gram resting tension, the tissues are pre-treated with U-46619 (a thromboxane A2 receptor agonist) for 10 minutes, then washed and the tissues allowed to equilibrate for a further 1 hour. Cumulative doses of U-46619 over the range 1 nM-100 nM are sequentially included in the bathing fluid and increases in the tissue tension noted.
The test compounds are incubated with the tissue for 15 minutes prior to repeating the cumulative dosing of U-46619 and the ability of the compound to antagonize the thromboxane A2 receptor is determined from the dose-response curves for U-46619 in the presence of varied concentrations of the test compound.

[3] = molecular target: T2, thromboxane A2 synthetase (Homo sapiens, UniProt P24557); assay: Thromboxane A2 (T×A2) synthetase inhibition (T×B2 production, radioimmunoassay); type: biochemical; conditions: human platelet microsomes, in vitro; read-out: T×A2 synthetase inhibitory activity: IC50
T2 construct: Indomethacin pretreated human platelet microsomes; from tissue; host or cells: human platelets (microsomes)
T2 sequence (P24557 1-533): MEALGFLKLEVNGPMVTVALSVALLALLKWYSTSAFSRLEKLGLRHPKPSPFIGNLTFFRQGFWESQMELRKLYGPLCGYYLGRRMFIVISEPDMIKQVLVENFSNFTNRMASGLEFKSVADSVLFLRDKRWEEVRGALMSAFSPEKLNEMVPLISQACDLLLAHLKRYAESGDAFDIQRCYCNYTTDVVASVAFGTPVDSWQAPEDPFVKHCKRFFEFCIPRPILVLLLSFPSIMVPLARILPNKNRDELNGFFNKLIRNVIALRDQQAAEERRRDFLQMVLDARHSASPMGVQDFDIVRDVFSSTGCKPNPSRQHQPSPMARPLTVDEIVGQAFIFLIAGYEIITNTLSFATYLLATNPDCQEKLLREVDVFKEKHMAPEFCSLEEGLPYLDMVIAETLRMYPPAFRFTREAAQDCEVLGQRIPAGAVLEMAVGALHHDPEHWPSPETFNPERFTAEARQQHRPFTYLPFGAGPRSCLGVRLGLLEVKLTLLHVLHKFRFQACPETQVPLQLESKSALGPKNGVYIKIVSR
Protocol: Ram seminal vesicle microsomes (Biochemistry, 1971, 10, 2372) are incubated with arachidonic acid (100.0 μM) for 1.0 minute at 22° C. to produce endoperoxide (PGH2). Aliquots of PGH2 are incubated for 30 seconds at 22° C. with pig aorta microsomes (Nature, 1976, 263, 663) and the reaction terminated with five volumes of ethanol. PGI2 production is assessed by measuring its stable breakdown product 6-keto-PGF1α, using a specific radioimmunoassay.
Indomethacin pretreated human platelet microsomes (Science 1976, 193, 163) are incubated for 2 minutes at 0° C. with PGH2 (produced as in 1) and the reaction terminated with 5 volumes of ethanol. T×A2 production is assessed by measuring its stable metabolite T×B2,using a specific radioimmunoassay.
The test compound is pre-incubated with enzyme for 5 minutes, and its ability to inhibit the thromboxane A2 synthetase enzyme is measured as the reduction of T×A2 (T×B2) production.

Row | Structure (SMILES) | Kb [2] [nM] | IC50 [3] [nM] | inhibition of PGI2 production by PGI2 synthetase [1]
1 | CCCCCC(/C=C/C=C\C/C=C\C/C=C\CCCC(=O)O)OO (stereo not shown) [15-hydroperoxyarachidonic acid] |  |  | completely inhibited
2 | O=C(O)CCc1cc(CCNS(=O)(=O)c2ccc(Cl)cc2)cc(Cc2cccnc2)c1 [Example 48, 3-{3-[2-(4-Chlorophenylsulphonylamino)ethyl]-5-(3-pyridylmethyl)phenyl}propanoic acid] | 0.407 | 39 | 
3 | O=C(O)CCc1cc(CCNS(=O)(=O)c2ccc(Br)cc2)cc(Cc2cccnc2)c1 [Example 49, 3-{3-[2-(4-Bromophenylsulphonylamino)ethyl]-5-(3-pyridylmethyl)phenyl}propanoic acid] | 0.363 | 49 | 
4 | O=C(O)CCc1cc(CCNS(=O)(=O)c2ccccc2)cc(Oc2cccnc2)c1 [Example 61, 3-[3(2-Phenylsulphonylamino)ethyl-5-(3-pyridyloxy)phenyl]propanoic acid] | 0.871 | 38 | 
5 | O=C(O)CCc1cc(CCNS(=O)(=O)c2ccc(Cl)cc2)cc(Oc2cccnc2)c1 [Example 62, 3-{3-[2-(4-Chlorophenylsulphonylamino)ethyl]-5-(3-pyridyloxy)phenyl}propanoic acid] | 0.398 | 37 | 
6 | CC(O)(c1cccnc1)c1cc(CCNS(=O)(=O)c2ccc(Cl)cc2)cc(CCC(=O)O)c1 (stereo not shown) [Example 67] | 0.851 | 61 | 
7 | C=C(c1cccnc1)c1cc(CCNS(=O)(=O)c2ccccc2)cc(CCC(=O)O)c1 [Example 82, 3-{3-(2-Phenylsulphonylamino)ethyl-5-[1-(3-pyridyl)ethenyl]phenyl}propanoic acid] | 0.759 | 50 | 

Second part, led by results:

Row | Kb [2] [nM] | IC50 [3] [nM] | Structure (SMILES) | inhibition of PGI2 production by PGI2 synthetase [1]
8 | 0.0977 | 53 | C=C(c1cccnc1)c1cc(CCNS(=O)(=O)c2ccc(Cl)cc2)cc(CCC(=O)O)c1 [Example 83, 3-{3-[2-(4-Chlorophenylsulphonylamino)ethyl]-5-[1-(3-pyridyl)ethenyl]phenyl}propanoic acid] | 
9 | 0.186 | 44 | CC(c1cccnc1)c1cc(CCNS(=O)(=O)c2ccccc2)cc(CCC(=O)O)c1 (stereo not shown) [Example 84, 3-{3-(2-Phenylsulphonylamino)ethyl-5-[1-(3-pyridyl)ethyl]phenyl}propanoic acid] | 
10 | 0.0692 | 38 | CC(c1cccnc1)c1cc(CCNS(=O)(=O)c2ccc(Cl)cc2)cc(CCC(=O)O)c1 (stereo not shown) [Example 85, 3-{3-[2-(4-Chlorophenylsulphonylamino)ethyl]-5-[1-(3-pyridyl)ethyl]phenyl}propanoic acid] | 
